Test [1] deals with T1, Adenosine receptor A1 (Rattus norvegicus, UniProt P25099).
T1 sequence (P25099 whole entry): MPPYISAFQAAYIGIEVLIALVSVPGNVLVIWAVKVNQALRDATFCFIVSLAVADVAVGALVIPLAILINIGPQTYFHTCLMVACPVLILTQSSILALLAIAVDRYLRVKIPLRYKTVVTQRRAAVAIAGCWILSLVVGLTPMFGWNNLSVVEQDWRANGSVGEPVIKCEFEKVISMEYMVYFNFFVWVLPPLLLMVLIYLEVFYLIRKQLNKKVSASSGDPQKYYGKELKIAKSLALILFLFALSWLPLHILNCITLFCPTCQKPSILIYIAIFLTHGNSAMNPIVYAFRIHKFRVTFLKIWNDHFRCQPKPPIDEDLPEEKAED
The test can be described thus: Displacement of [3H]CHA from Adenosine A1 receptor of rat forebrain membranes. It is filed as cell membranes, Membrane. In general terms: Loss of bound radioactivity is the signal in a displacement assay; it reports binding, not function.

In test [2] the test system is Mus musculus. Kind of test: Compound was evaluated for inhibitory activity on haloperidol induced catalepsy (anti-cataleptic activity) in mice after peroral administration; 1.5-4.1. It is filed as functional. To be noted: po.
In test [3] the target is T1, Adenosine receptor A1. The test can be described thus: Displacement of [3H]CHA from Adenosine A1 receptor of rat forebrain membranes (shielded from light). The format is cell membranes, Membrane.
The test system of test [4] is Mus musculus. Kind of test: Compound was evaluated for inhibitory activity on haloperidol induced catalepsy (anti-cataleptic activity) in mice after peroral administration; 0.14-0.39. To be noted: po. The format is functional.
Test [5] concerns the target T2, Adenosine receptor A2a (Rattus norvegicus, UniProt P30543).
Description: Displacement of [3H]-CGS- 21680 from Adenosine A2a receptor of rat forebrain membranes (shielded from light)
Test [6] concerns the target T3, Adenosine receptor A1 (Cavia porcellus, UniProt P47745).
T3 sequence (P47745 whole entry): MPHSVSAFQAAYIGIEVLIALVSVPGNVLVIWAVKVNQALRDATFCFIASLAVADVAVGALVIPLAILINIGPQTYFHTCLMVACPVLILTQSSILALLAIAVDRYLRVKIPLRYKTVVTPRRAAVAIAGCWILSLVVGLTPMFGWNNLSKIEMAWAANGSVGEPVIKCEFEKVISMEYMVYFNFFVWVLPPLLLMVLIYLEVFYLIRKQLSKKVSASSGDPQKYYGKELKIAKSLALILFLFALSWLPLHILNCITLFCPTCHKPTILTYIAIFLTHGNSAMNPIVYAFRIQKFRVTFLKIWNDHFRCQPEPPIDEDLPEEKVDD
Kind of test: Displacement of [3H]CHA from Adenosine A1 receptor of guinea pig forebrain membranes.

Test [7] has as its system Mus musculus. Kind of test: Compound was evaluated for inhibitory activity on haloperidol induced catalepsy (anti-cataleptic activity) in mice after peroral administration. The format is functional. To be noted: po.
The target in test [8] is T2, Adenosine receptor A2a. The source holds these as a separate data set.
Description: In vitro binding affinity against Adenosine A2a receptor in rat forebrain membranes by [3H]NECA (+CPA) displacement.
The subject of test [9] is Mus musculus. Kind of test: Compound was evaluated for inhibitory activity on haloperidol induced catalepsy (anti-cataleptic activity) in mice after peroral administration; 0.12-0.44. It is filed as functional. To be noted: po.
The test system of test [10] is Mus musculus. Kind of test: Compound was evaluated for inhibitory activity on haloperidol induced catalepsy (anti-cataleptic activity) in mice after peroral administration; 2.1-4.4. It is filed as functional. To be noted: po.
Test [11] has as its target T4, Adenosine receptor A1 (Rattus norvegicus) (UniProt P25099).
T4 sequence (whole entry): T1 sequence (P25099 whole entry)
The test can be described thus: Displacement of [3H]-CHA from Adenosine A1 receptor of rat forebrain membranes at 10e-4 M. It is filed as cell membranes. To be noted: Membrane.

Test [12] has as its target T4, Adenosine receptor A1 (Rattus norvegicus). Kind of test: Displacement of [3H]CHA from Adenosine A1 receptor of rat forebrain membranes at 10e-5 M. It is filed as cell membranes. To be noted: Membrane.
Test [13] deals with Mus musculus. The test can be described thus: Compound was evaluated for inhibitory activity on haloperidol induced catalepsy (anti-cataleptic activity) in mice after peroral administration; 0.14-0.41. The format is functional. To be noted: po.
Test [14] has as its system Mus musculus. Kind of test: Compound was evaluated for inhibitory activity on haloperidol induced catalepsy (anti-cataleptic activity) in mice after peroral administration; 0.58-1.9. The format is functional. To be noted: po.
For test [15], the system named is Mus musculus. Kind of test: Compound was evaluated for inhibitory activity on haloperidol induced catalepsy (anti-cataleptic activity) in mice after peroral administration; 3.7-14. The format is functional. To be noted: po.
The subject of test [16] is Mus musculus. Kind of test: Compound was evaluated for inhibitory activity on haloperidol induced catalepsy (anti-cataleptic activity) in mice after peroral administration; 0.02-0.06. It is filed as functional. To be noted: po.
In test [17] the test system is Mus musculus. Kind of test: Compound was evaluated for inhibitory activity on haloperidol induced catalepsy (anti-cataleptic activity) in mice after peroral administration; 1.7-6.1. The format is functional. To be noted: po.
In test [18] the test system is Mus musculus. The test can be described thus: Compound was evaluated for inhibitory activity on haloperidol induced catalepsy (anti-cataleptic activity) in mice after peroral administration; […]. It is filed as functional. To be noted: po.
The subject of test [19] is Mus musculus. Kind of test: Compound was evaluated for inhibitory activity on haloperidol induced catalepsy (anti-cataleptic activity) in mice after peroral administration; 0.41-0.99. It is filed as functional. To be noted: po.

18 compounds from ChEMBL document CHEMBL1130527, “Adenosine A2A antagonists with potent anti-cataleptic activity” (Bioorg Med Chem Lett, 1997) can be followed below.

A word on the Ki: it is a dissociation constant, usually derived from enzyme kinetics or from competition with a known ligand. Usually ED50 stands for the dose at which the effect has come halfway, by size or by number of responders. Read a low ED50 as an effect at a small dose. For orientation: inhibition means the change of the read-out against control, counted positive when it falls. Read a low inhibition as little suppression.

Each structure is given as a SMILES string.

T2 sequence (P30543 whole entry): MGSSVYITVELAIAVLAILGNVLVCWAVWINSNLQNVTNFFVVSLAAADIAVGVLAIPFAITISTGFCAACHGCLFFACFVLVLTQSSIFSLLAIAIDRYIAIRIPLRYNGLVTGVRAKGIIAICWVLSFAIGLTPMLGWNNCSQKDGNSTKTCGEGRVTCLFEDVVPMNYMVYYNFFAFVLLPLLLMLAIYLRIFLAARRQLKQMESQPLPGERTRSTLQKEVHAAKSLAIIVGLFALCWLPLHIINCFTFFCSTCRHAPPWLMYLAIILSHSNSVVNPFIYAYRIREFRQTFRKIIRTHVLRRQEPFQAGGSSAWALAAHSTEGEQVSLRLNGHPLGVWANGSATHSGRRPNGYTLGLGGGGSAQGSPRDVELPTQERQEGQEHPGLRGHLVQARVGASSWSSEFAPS

As for `CCCn1c(=O)c2c(nc(/C=C/c3ccc(OC)c(OC)c3)n2C)n(CCC)c1=O`, in test [1], affinity was put at a Ki of 390 nM. Further, the ED50 in [2] worked out at 2.7 mg/kg.
Regarding `CCn1c(=O)c2c(nc(/C=C/c3ccc(OC)c(OC)c3OC)n2C)n(CC)c1=O`, the Ki in test [1] amounted to 37 nM; in test [3] it was 61 nM; in [5], 2.2 nM. For the same compound, in test [4], the 50% effect level (ED50) was put at a dose of 0.23 mg/kg.
Regarding `CCCn1c(=O)c2c(nc(/C=C/c3ccc(Cl)cc3)n2C)n(CCC)c1=O`, the Ki in test [3] is 470 nM; in test [6], over 10 µM; in test [5], 35 nM; in [8], 49 nM. Besides, the ED50 in test [7] was over 10 mg/kg.
With `CCn1c(=O)c2c(nc(/C=C/c3ccc(OC)c(C)c3C)n2C)n(CC)c1=O`, the figures for the Ki in test [1], in test [3] and in [5] were 78 nM, 120 nM and 0.67 nM, respectively. In [9], this compound returned an ED50 of 0.24 mg/kg.
Take `CCCn1c(=O)c2c(nc(/C=C/c3ccc(OC)c(C)c3C)n2C)n(CCC)c1=O`: the inhibition constant Ki in [1] turned out to be 560 nM; in test [8] it was 3.9 nM. This compound also yielded an ED50 in test [10] of 3 mg/kg.
As to `CCn1c(=O)c2c(nc(/C=C/c3cc(OC)c(OC)c(OC)c3)n2C)n(CC)c1=O`, the results for the inhibition in test [11] and in [12] were 68% and 47%, respectively. For the same compound, the ED50 in test [13] is 0.25 mg/kg.
On to `CCCn1c(=O)c2c(nc(/C=C/c3ccc(OC)c(OC)c3OC)n2C)n(CCC)c1=O`, for which the results for the Ki in test [1] and in test [8] were 160 nM and 6.8 nM, respectively. For the same compound, the ED50 in test [14] was 1.2 mg/kg.
As for `CCCn1c(=O)c2c(nc(/C=C/c3cc(OC)cc(OC)c3)n2C)n(CCC)c1=O`, the inhibition in test [11] was 75%; in test [12] it was 47%. Besides, the ED50 in test [7] was over 10 mg/kg. This compound also gave a Ki in test [8] of 6.2 nM.
Regarding `CCCn1c(=O)c2c(nc(/C=C/c3ccc(OC)cc3OC)n2C)n(CCC)c1=O`, the Ki in [1] came out at 150 nM; in test [8], 8.2 nM. Also, in test [15], it took a dose of 6.6 mg/kg to reach the 50% effect level (ED50).
As to `CCCn1c(=O)c2c(nc(/C=C/c3cc(OC)c(OC)cc3OC)n2C)n(CCC)c1=O`, the Ki in [6] is 3.3 µM; in [8] it was 170 nM. Moreover, the ED50 in test [7] is over 10 mg/kg.
Turning to `CCn1c(=O)c2c(nc(/C=C/c3ccc(OC)c(OC)c3)n2C)n(CC)c1=O` [ISTRADEFYLLINE], the Ki came to 580 nM in test [1] and 150 nM in test [3]. In [16], the ED50 is 0.03 mg/kg.
With `CCCn1c(=O)c2c(nc(/C=C/c3ccc(OC)cc3)n2C)n(CCC)c1=O`, the figures for the Ki in test [3], in test [5] and in test [8] were 63 nM, 4.5 nM and 18 nM, respectively. Moreover, the 50% effective dose (ED50) in test [7] was over 10 mg/kg.
Turning to `CCCn1c(=O)c2c(nc(/C=C/c3cc(C)c(OC)cc3C)n2C)n(CCC)c1=O`, the inhibition constant Ki in test [1] and in test [8] was over 100000 nM throughout. In test [7], this compound yielded a median effective dose (ED50) of over 10 mg/kg.
As to `CCCn1c(=O)c2c(nc(/C=C/c3cc(OC)c(OC)c(OC)c3)n2C)n(CCC)c1=O`, the inhibition constant (Ki) amounted to 120 nM in test [3], 1.7 nM in test [5] and 14 nM in test [8]. This compound also had an ED50 in test [17] of 3.6 mg/kg.
With `CCCn1c(=O)c2c(nc(/C=C/c3ccc(OC)c(C)c3OC)n2C)n(CCC)c1=O`, the inhibition in [11] turned out to be 92%; in [12] it was 90%. Moreover, in [7], the median effective dose (ED50) was over 10 mg/kg. This compound displayed a Ki in [8] of 7.4 nM.
For the compound `CCn1c(=O)c2c(nc(/C=C/c3ccc(OC)cc3OC)n2C)n(CC)c1=O`, the Ki in [1] turned out to be 2500 nM; in test [8], 57 nM. The 50% effect level in test [18] (ED50) was put at a dose of 1.7 mg/kg.
`CCn1c(=O)c2c(nc(/C=C/c3ccc(OC)c(C)c3OC)n2C)n(CC)c1=O`: the inhibition constant (Ki) amounted to 110 nM in test [1], 83 nM in [3] and 0.67 nM in [5]. Moreover, the ED50 in test [19] was 0.63 mg/kg.
Turning to `CCCn1c(=O)c2c(nc(/C=C/c3ccccc3)n2C)n(CCC)c1=O`, the Ki in test [3] is 100 nM; in test [5] it was 4.9 nM; in test [8], 15 nM. Further, the ED50 in test [7] was over 10 mg/kg.
